Measured values published in patent US8765054B2, “Process for treatment of residual nucleic acids present on the surface of laboratory consumables” (EMD Millipore Corporation, priority 2010, dated 2014).

How the values were obtained:
[1] = test system: DNA (E. coli, P. aeruginosa); assay: Residual free DNA on 1.5 ml polypropylene tubes after treatment, determined by PCR
Description: (§1) Several consumables consisting of 1.5 ml polypropylene tubes were contaminated in parallel with a known quantity of DNA, RNA or microorganisms. These consumables were then gamma-sterilized (doses from 0 to 60 kGy) or treated with ethylene oxide in gaseous phase. After sterilization, the presence of residual nucleic acids is determined by PCR (for DNA) and TMA (for RNA) and compared with an unsterilized control consumable.
(§2) Several consumables of the same type as those used in protocol 1 were contaminated with the same known quantity of DNA, RNA or microorganisms. These consumables were then treated by a treatment with hydrogen peroxide made in liquid solution (respectively 3% and 30% H2O2). The hydrogen peroxide is evaporated at the end of the process by virtue of a step of drying under vacuum at a temperature of 60° C. After treatment, the presence of residual nucleic acids was determined by PCR (for DNA) and TMA (for RNA) and compared with an untreated sample.

[2] = test system: Germs (E. coli, P. aeruginosa); assay: Residual DNA contained in microorganisms (germs) on tubes after treatment, determined by PCR; type: cell-based
Description: as §1, §2
(§3) Several consumables of the same type as those used in protocol 1 were contaminated with the same known quantity of DNA, RNA or microorganisms. A proportion of those consumables was then treated according to the invention with gaseous ethylene oxide followed by the 3% or 30% hydrogen peroxide. A further proportion was treated with gamma radiation instead of with the gaseous ethylene oxide then with hydrogen peroxide. In both cases, the hydrogen peroxide was evaporated by virtue of a vacuum drying step at a temperature of 60° C. After treatment, the presence of residual nucleic acids was determined by PCR (for DNA) and TMA (for RNA) and compared with an untreated sample.

[3] = test system: RNA (P. acnes, P. aeruginosa); assay: Residual free RNA on 1.5 ml polypropylene tubes after treatment, determined by TMA; design: key to the marks not given beside the values
Description: as §1, §2

[4] = test system: Germs (P. acnes, P. aeruginosa); assay: Residual RNA contained in microorganisms (germs) on tubes after treatment, determined by TMA; type: cell-based
Description: as §1, §2, §3

[5] = Protocol 2, liquid H2O2, minimum time of action 40 min at 60° C.

| SMILES | Effectiveness of the residual nucleic acid treatment, DNA (PCR) ([1]; Protocol 1, free DNA, E. coli, P. aeruginosa, vs unsterilized control) | Effectiveness of the residual nucleic acid treatment, Germs (PCR) ([2]; Protocol 1, DNA in microorganisms, E. coli, P. aeruginosa) | Effectiveness of the residual nucleic acid treatment, RNA (TMA) ([3]; Protocol 1, free RNA, P. acnes, P. aeruginosa, vs unsterilized control) | Effectiveness of the residual nucleic acid treatment, Germs (TMA) ([4]; Protocol 1, RNA in microorganisms, P. acnes, P. aeruginosa) | Effectiveness of the residual nucleic acid treatment, DNA (PCR) [1, 5] | Effectiveness of the residual nucleic acid treatment, Germs (PCR) [2, 5] | Effectiveness of the residual nucleic acid treatment, RNA (TMA) [3, 5] | Effectiveness of the residual nucleic acid treatment, Germs (TMA) [4, 5] |
| --- | --- | --- | --- | --- | --- | --- | --- | --- |
| C1CO1 [EO, ethylene oxide] | + | + | +++ | − |  |  |  |  |
| OO [H2O2 3%, hydrogen peroxide] |  |  |  |  | ++ | − | ++ | − |
| OO [H2O2 30%, hydrogen peroxide] |  |  |  |  | +++ | − | +++ | − |
